For data set [1] the following is noted: cited from earlier work.
For data set [2] the following is noted: cited from earlier work. The source holds these as a separate data set.
Data set [3] is described as follows: FL intensity of TPEDB in Britton-Robinson buffers at different pH. Type of data set: physicochemical. Here is the method:
(§1) The light emission of TPEDB started to decrease in intensity when the pH of the buffer was raised to >8.61 and became very weak at pH≧9.74. Since the pKa of PBA is ca. 9, TPEDB was ionized by the alkaline medium and became soluble in the buffers with high pH. The solutions of TPEDB were virtually nonfluorescent, while its aggregates were highly emissive, proving that TPEDB, like its parent form TPE, is AIE-active.
Into a 100 mL volumetric flask were added 4.0 mg NaOH and 80 mL of deionized water. After adding 3 mL of DMSO into the carbonate buffer, 1 mL of the stock solution of TPEDB in DMSO (10 mM) was added under stirring. The volume of the solution was increased to 100 mL by adding an appropriate amount of deionized water. The resultant solution of TPEDB (0.1 mM) in the NaOH solution (0.001M) containing 4 vol % DMSO was stirred for 15 min before use.
Into a 100 mL volumetric flask were added 4.611 H3PO4, 2.402 g CH3COOH, and 2.473 g B(OH)3, and the volume of the solution was increased to 100 mL by adding appropriate amount of deionized water. The resultant solution of the acid mixture (0.4 M) was stirred for 15 min before use. Into a 100 mL volumetric flask was added 1.600 g NaOH, and the volume of the solution was increased to 100 mL by adding appropriate amount of deionized water. The resultant solution of base (0.4 M) was stirred for 15 min before use. An aliquot (0.4 mL) of the solution of acid mixture (0.4 M) and appropriate amount of the solution of NaOH (0.4 M) from 0 mL to 1.6 mL were added into a 10 mL volumetric flask. The volume of the solution was increased to 2.0 mL by adding an appropriate amount of deionized water. The resultant standard Britton-Robinson buffer (0.08 M) with various pH was left to stand for a few minutes before use.
An aliquot (2.0 mL) of the stock solution of TPEDB (0.1 mM) in the NaOH solution (0.001M) containing 4 vol % DMSO and 2.0 mL of the standard Britton-Robinson buffer (0.08 M) with various pH were added into a 10 mL volumetric flask. After shaking for a few seconds, solutions of TPEDB (50 μM) with various pH in the Britton-Robinson buffer containing 2 vol % DMSO were obtained. The solutions were allowed to stand for 30 min, and their FL spectra were measured before the pH values were measured using pH-meter.

Data set [4] in a line: FL response of TPE boronic acid probe to D-glucose in carbonate buffer. On the procedure: The present subject matter in one embodiment relates to a selective detection of D-glucose (D-Glu) by TPEDB probe in a sample with its fluorescence enhancement. The concentration or level of D-Glu detectable in a sample is not particularly limited, but is preferably about 0.2 mM or more. […] When 0.2 mM Glu was added, however, the FL spectrum of TPEDB was intensified. The FL intensity increased with an increase in the amount of Glu. At [Glu]=5 mM, the solution of TPEDB became very emissive, with an intensity ca. 5.4-fold higher than that in the absence of Glu.
Into a 100 mL volumetric flask were added 1.120 g of K2CO3, 0.190 g of KHCO3 and 80 mL of deionized water. After adding 3 mL of DMSO into the carbonate buffer, 1 mL of the stock solution of TPEDB in DMSO (10 mM) was added under stirring. The volume of the solution was increased to 100 mL by adding an appropriate amount of deionized water. The resultant solution of TPEDB (0.1 mM) in the carbonate buffer (pH 10.5) was stirred for 15 min before use.
Into a 25 mL volumetric flask was added 90 mg of a saccharide (Glu, Fru, Gal or Man) and 25 mL of deionized water. An aliquot of the resultant stock solution (20 mM) was diluted in another volumetric flask to obtain a sample solution with a desired concentration (2.0 mM, 0.20 mM, 20 μM or 2.0 μM).
An aliquot (2.0 mL) of the stock solution of TPEDB (0.1 mM) in the carbonate buffer containing 4 vol % DMSO and 2.0 mL of the stock solution of Glu (20 mM) were added into a 10 mL volumetric flask. After shaking for a few seconds, a solution of TPEDB (50 μM) with 10 mM of Glu in the carbonate buffer containing 2 vol % DMSO was obtained. The solution was allowed to stand for 30 min before its FL measurement.
To prepare a solution of TPEDB (50 μM) with 8 mM of Glu in the carbonate buffer containing 2 vol % DMSO, 1.6 mL of the stock solution of Glu (20 mM) and 0.4 mL of deionized water were added to 2.0 mL of a stock solution of TPEDB (0.1 mM) in the carbonate buffer containing 4 vol % DMSO.

Data set [5] is described as follows: Miscibility / solubility of TPEDB in aqueous media. Type of data set: physicochemical.
Description: as §1

Data set [6] is described as follows: FL response of probe to D-fructose in carbonate buffer.
A short description of data set [7]: Detection of Glu in artificial urine by TPEDB. To be noted: TPEDB 50 μM, carbonate buffer with artificial urine. On the procedure: To explore the potential of TPEDB for real-world applications, the possibility of using TPEDB for detection of Glu in urine was tested. […] The profile of the I/I0 versus [Glu] plot for the urine Glu, however, was different from that for the “pure” Glu (in the carbonate buffer without urine) in the high-[Glu] region. Although the exact reason for this is unclear at the present time, it may be caused by the interactions of urea, α-hydroxycarboxylic acids, and salts in the urine with the boronate units of TPEDB.
An artificial urine was prepared according to the recipe reported by Keevil et al. and Whitesides et al (C. W. Keevil, et al, Lett. Appl. Microbiol. 1997. 24, 203; G. M. Whitesides, et al, Proc. Natl. Acad. Sci. U.S.A. 2008, 105, 19606). 1.1 mM Lactic acid, 2.0 mM citric acid, 25 mM sodium bicarbonate, 170 mM urea, 2.5 mM calcium chloride, 90 mM sodium chloride, 2.0 mM magnesium sulfate, 7.0 mM potassium dihydrogen phosphate, 7.0 mM dipotassium hydrogen phosphate, 10 mM sodium sulfate, and 25 mM ammonium chloride were mixed in deionized water. The pH value of the solution was adjusted to 6.0 by the addition of 1.0 M hydrochloric acid. […]
An aliquot (1 mL) of the artificial urine solution with a desired concentration of Glu was added to 2 mL solution of TPEDB (100 μM) in the carbonate buffer containing 4 vol % DMSO. […] FL spectrum of the mixture was measured after stirring for 30 min.

The nature of data set [8]: FL response of TPEDB to Glu in the presence of a saccharide interferent. On the procedure: In the presence of Fru, the FL spectrum of TPEDB was gradually intensified by the addition of Glu, but the rate of increase in the intensity was lower because of the competition between Glu and Fru to bind with TPEDB. Similarly, Gal and Man interfered with the FL response of TPEDB to Glu, although the effects were smaller.
Solutions of Glu (40 mM-4.0 μM), Fru (0.4 mM), Gal (0.4 mM) and Man (0.4 mM) in deionized water were prepared. An aliquot (2.0 mL) of the solution of TPEDB (0.1 mM) in the carbonate buffer containing 4 vol % DMSO was added into a 10 mL volumetric flask, followed by the addition of 1.0 mL of a solution of Fru (0.4 mM) and 1.0 mL of a solution of Glu (40 mM). After shaking for a few seconds, a solution of TPEDB (50 μM) with 10 mM of Glu and 0.1 mM of Fru in the carbonate buffer containing 2% DMSO was obtained. The solution was allowed to stand for 30 min before its FL measurement. The solution of TPEDB and Glu containing another saccharide (Gal or Man) was prepared by similar procedures.

Data set [9] can be described thus: FL response of probe to D-galactose in carbonate buffer. The note with it: TPEMB 10 μM, 10 vol % DMSO, any amount.
A short description of data set [10]: FL response of probe to D-mannose in carbonate buffer. The note with it: TPEMB 10 μM, 10 vol % DMSO, any amount.
Setting [11] is: Britton-Robinson buffer, 2 vol % DMSO.

Each structure is given as a SMILES string. Like-named read-outs stand apart in the source and are kept apart here.

For `OB(O)c1ccccc1` [PBA, phenylboronic acid], the pKa result in data set [1] is “ca. 9”. Also, the “Ka,sugar/Ka,Glu” value is reported as 34.8 in data set [2] (Fru), 3.3 in data set [2] (Gal) and 2.8 in data set [2] (Man).

Regarding `OB(O)c1ccc(C(=C(c2ccccc2)c2ccc(B(O)O)cc2)c2ccccc2)cc1` [TPEDB, (1,2-diphenylethene-1,2-diyl)bis(1,4-phenylene)-1,1′-diboronic acid], the “pH below which the luminogen is highly emissive” value in data set [3] was < 9.0. In [3] (setting [11]), the “pH above which light emission started to decrease in intensity” value was > 8.61 and the “pH at which light emission became very weak” value is recorded as ≥ 9.74. For the same compound, the “Emission of aggregates suspended in acidic buffer” value in data set [3] (pH 4.34) is reported as “strong blue light”. In data set [4] (TPEDB 50 μM, carbonate buffer pH 10.5), the “Glu concentration at which the FL spectrum of TPEDB was intensified (below it almost no change)” value turned out to be 0.2 mM. Moreover, the “[Glu] at which FL intensity reaches its maximum” value in data set [4] (TPEDB 50 μM, carbonate buffer pH 10.5, intensity decreases above) was 5 mM. Also, the “Solubility in alkaline aqueous media” value in [5] (alkaline aqueous media containing small amount of DMSO) was “readily soluble”. The Miscibility with water result in [5] (water) is on record as “immiscible with water”. Moreover, the “Change of emission spectrum on addition of Fru” value in data set [6] (10 mM Fru, TPEDB in carbonate buffer) is reported as “only slightly intensified”. The “Effect of Glu in artificial urine on FL spectrum” value in [7] was “augmented its FL spectrum”. For the same compound, the “Interference of the isomeric saccharides to the FL response to Glu” value in [8] (0.1 mM Fru, Gal or Man interferent, TPEDB 50 μM, carbonate buffer) is on record as “almost no interference”. Besides, the “Affinity order of saccharide to TPEDB” value in [8] (suggested from interference data) is recorded as “Fru>Gal≈Man>Glu”.

`OB(O)c1ccc(C(=C(c2ccccc2)c2ccccc2)c2ccccc2)cc1` [TPEMB, 4-(1,2,2-triphenylvinyl)phenylboronic acid]: the “Change in FL spectrum on addition of Glu” value in data set [4] (TPEMB 10 μM, carbonate buffer, 10 vol % DMSO, wide [Glu] range) is “little change”. For the same compound, the “Emission on addition of Gal” value in [9] is recorded as “remained nonemissive”. Further, the “Emission on addition of Fru” value in data set [6] (TPEMB 10 μM, carbonate buffer, 10 vol % DMSO, any amount) was “remained nonemissive”. Moreover, in data set [10], the “Emission on addition of Man” value is recorded as “remained nonemissive”.

(Values after patent US9051598B2, “Specific detection of D-glucose by a tetraphenylethene-base fluorescent sensor” (THE HONG KONG UNIVERSITY OF SCIENCE AND TECHNOLOGY, priority 2011, dated 2015).)
